Experimental data reported in PubChem BioAssay (NCI).
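1) Cells in 96-well plates. 2) Compound, 48 h, 5 concentrations. 3) Linear interpolation between surrounding doses. 4) Unreached endpoint = highest concentration. Abbreviation: GI50, concentration required for 50% inhibition of growth. The concentration for full growth arrest is given as TGI.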

system: SK-MEL-2 melanoma; experiment: DTP human tumour cell line panel, 48 h

Row | SMILES | GI50 [µM] | TGI [µM]
1 | C=C(C)[C@@H]1CC[C@]2(C)[C@H](CC[C@@H]3[C@@H]([C@@](C)(O)CCC=C(C)C)CC[C@]32C)[C@@]1(C)CCC(=O)O | 17.6 | 39
2 | c1ccc(NCCSc2nc3ccccc3s2)cc1 | – | > 100
3 | Oc1ccc(Oc2cnc3ccccc3n2)cc1 | > 100 | > 100
4 | Cc1ccc2occ/c(=N\Nc3ccccc3)c2c1 | – | > 100
5 | CC(=O)NC1CONC1=O (centres undefined) | – | > 100
6 | Oc1ccc(N=Nc2nccs2)c(O)c1 | 17.1 | 60.3
7 | COc1ccc2c(c1)C(C)Cc1c(ncnc1-n1cnc3ccccc31)N2C (centres undefined) | 0.357 | 24.6
8 | COc1ccc(-c2noc(N)c2-c2cc(OC)c3c(c2)OCO3)cc1 | 1.51 | 6.83
9 | NCCCn1c2c(c3ccccc3c1=O)C(=O)c1ccccc1-2 | 4.31 | 12.5
10 | O=C1c2ccccc2C(=O)c2c(NCCN=Cc3ccccc3O)cccc21 | 4.42 | 11.3
11 | Oc1ccc(/C=C/c2cc(O)cc3c2C(c2cc(O)cc(O)c2)C(c2ccc(O)c(O)c2)O3)cc1 (centres undefined) | – | 74.8
12 | CC1(C)N=C(N)N=C(N)N1c1cccc(OCCOc2cccc([N+](=O)[O-])c2)c1 | 15.2 | > 100
13 | O=C(NC1CCCCC1)c1ccc(Nc2ncnc3c2cnn3-c2ccccc2)cc1 | 13.6 | 36.2
14 | CCc1nc(Cl)c(Cl)c(Cl)n1 | – | > 100
15 | O=[N+]([O-])c1ccc(Sc2c3ccccc3nc3ccccc23)cn1 | – | 48.1
16 | C=CCn1c(SCC(=O)Nc2ccc(C(=O)/C=C/c3cc(OC)c(OC)c(OC)c3)cc2)nnc1-c1ccc(OC)cc1 | 2.1 | 15.4
17 | Clc1nc(Cl)c2ncn(Cc3ccccc3Cn3cnc4c(Cl)nc(Cl)nc43)c2n1 | 8.96 | 27.8
18 | O=C(N/N=C/c1ccc(O)cc1O)c1cccnc1 | 13.5 | 60.8
19 | O=C(NNc1cnccn1)c1nc2cc(F)ccc2n2cccc12 | 1.61 | > 100
20 | NCCCOc1cc2ccccc2cc1C(=O)NCCCOc1cc2ccccc2cc1C(=O)Nc1ccc(Cl)cc1O | 1.21 | 2.91
21 | NC(N)=N/N=C(\N=Nc1ccccc1)c1ccc(Cl)cc1 | 3.79 | 13.1
22 | Cc1cc(NCCCCNc2ccnc3cc(Cl)ccc23)nc(Nc2ccc(C(=O)N3CCCCC3)cc2)n1 | 2.05 | 3.9
23 | c1ccc2c(c1)c1ccccc1c1ccccc21 | > 100 | > 100
24 | Cc1c2c(C(N)=O)nccc2c(C)c2c1c1ccccc1n2Cc1ccccc1 | – | 43.3

system: CCRF-CEM leukemia; experiment: DTP human tumour cell line panel, 48 h

Row | SMILES | GI50 [µM] | TGI [µM]
25 | COc1ccc(-c2nn(-c3cccc(Cl)c3)cc2-c2nc(N)[nH]c(=O)c2C#N)cc1 | 3.65 | 33.8
26 | COc1cc2c3c(n(CCCN(CCO)CCO)c(=O)c2cc1OC)-c1cc2c(cc1C3=O)OCO2 | < 0.01 | –
27 | CNCCn1c(=O)c2cc(OC)c(OC)cc2c2cnc3cc4c(cc3c21)OCO4 | < 0.01 | 1.19
28 | O=C(CCN1CCOCC1)Nc1cccc(-n2cc(-c3ccncc3)c(-c3ccc(Cl)c(O)c3)n2)c1 | 3.43 | 15.9
29 | C=C(C)[C@@H]1CC[C@]2(C)[C@H](CC[C@@H]3[C@@H]([C@@](C)(O)CCC=C(C)C)CC[C@]32C)[C@@]1(C)CCC(=O)O | 18 | 48.2
30 | c1ccc(NCCSc2nc3ccccc3s2)cc1 | – | 31.7
31 | Oc1ccc(Oc2cnc3ccccc3n2)cc1 | 24.2 | > 100
32 | Cc1ccc2occ/c(=N\Nc3ccccc3)c2c1 | – | > 100
33 | CC(=O)NC1CONC1=O (centres undefined) | – | > 100
34 | Oc1ccc(N=Nc2nccs2)c(O)c1 | 2.48 | 8.99
35 | COc1ccc2c(c1)C(C)Cc1c(ncnc1-n1cnc3ccccc31)N2C (centres undefined) | 0.481 | 20.5
